# Data: US20130001162A1, “Apparatus, System, and Method for Forward Osmosis in Water Reuse” (priority 2011, published 2013)
# Assay: Rejection of micropollutants by low pressure reverse osmosis (LPRO), diluted DS as feed
# Conditions: permeate of LPRO at 15 bar
row,Compound,"concentration, Permeate LPRO [ng/mL]"
1,Cc1ncc([N+](=O)[O-])n1CCO [Metronidazole],0.08
2,C#C[C@]1(O)CC[C@H]2[C@@H]3CCc4cc(O)ccc4[C@H]3CC[C@@]21C [17α-ethynilestradiol],<0.001
3,CC(C)(c1ccc(O)cc1)c1ccc(O)cc1 [Bisphenol A],0.058
4,CC(=O)Nc1ccc(O)cc1 [Acetaminophen],0.31
5,CC(C(=O)O)c1cccc(C(=O)c2ccccc2)c1 (stereo not drawn) [Ketoprofen],<0.01
6,Cn1c(=O)c2c(ncn2C)n(C)c1=O [Caffeine],0.03
7,NC(=O)N1c2ccccc2C=Cc2ccccc21 [Carbamazepine],0.02
8,Cc1ccc(C)c(OCCCC(C)(C)C(=O)O)c1 [Gemfibrozil],<0.01
9,"C1COCCO1 [1,4-dioxane]",<0.5
10,CC(C(=O)O)c1cccc(Oc2ccccc2)c1 (stereo not drawn) [Fenoprofen],<0.01

# Assay: not given
# Conditions: stated with the literature report; cited from earlier work
row,Compound,log D
1,C[C@]12CC[C@@H]3c4ccc(O)cc4CC[C@H]3[C@@H]1CCC2=O [estrone],3.46
2,C[C@]12CC[C@@H]3c4ccc(O)cc4CC[C@H]3[C@@H]1CC[C@@H]2O [estradiol],3.94
